In patent US4963544A, “3-pyrrolidinylthio-1-azabicyclo[3.2.0]-hept-2-ene-2-carboxylic acid compounds” (Fujisawa Pharmaceutical Company, Ltd., priority 1988, dated 1990) one finds MIC data, which are given here for 1 molecule.

≈ marks a conversion by molar mass, not a printed value.

This test concerns E. Coli 31. Briefly: in vitro antimicrobial activity, two-fold agar-plate dilution method. In kind it is cell-based. Conditions: Escherichia coli; test strain E. Coli 31; 10^6 viable cells per ml; HI-agar; 37° C., 20 hours; read-out: MIC (minimal inhibitory concentration). Here is the method: in vitro Antimicrobial Activity was determined by the two-fold agar-plate dilution method as described blow.
One loopful of an overnight culture of a test strain in Trypticase-soy broth (10^6 viable cells per ml) was streaked on heart infusion agar (HI-agar) containing graded concentrations of the test compound, and the minimal inhibitory concentration (MIC) was expressed in terms of μg/ml after incubation at 37° C. for 20 hours.

Take `C[C@@H](O)[C@H]1C(=O)N2C(C(=O)O)=C(S[C@@H]3CN[C@H](Cn4ccnc4)C3)[C@H](C)[C@H]12` [Example 2, (4R,5S,6S)-6-((IR)-1-hydroxyethyl) -3-((2S,4S)-2-(imidazol-1-yl)-methylpyrrolidin-4-yl) thio-4-methyl-7-oxo-1-azabicyclo(3.2.0) -hept-2-ene-2-carboxylic acid]: the MIC was found to be 0.05 µg/mL (≈ 0.127 µM).
